The text below walks through data of patent US20140163050A1, “Use of 1H-quinazoline-2,4-diones” (priority 2011, published 2014).

Experiment [1] concerns mouse. The experiment is described as follows: Oral bioavailability: in vivo orally active (audiogenic mouse test and/or MES test). On the procedure: The oral bioavailability was tested using the audiogenic mouse test (Audiogenic seizures, R. L. Collins; Chapter 14, pages: 347-372. In: Experimental Models of Epilepsy; By: Pupura, Penry, Tower, Woodbury, Walter, Raven Press, New York, 1972. Standard Book Number: 0-911216-26-X) and/or the MES test.

Experiment [2] relates to OF1 mice. The experiment is described as follows: maximal electroshock test (MES Test). It is filed as in vivo, mouse. The conditions noted are these: p.o.; for MES-Test (1 h, po) ED50: pre-treatment time 1 h. As for the experimental part: Compounds of the invention were tested in OF1 mice using the maximal electroshock test (MES Test) described in detail by Schmutz et al., Naunyn-Schmiedeberg's Arch Pharmacol 1990, 342, 61-66. Briefly, generalized tonic-clonic convulsions of the hind extremities were induced by passing electrical current through temporal electrodes (50 Hz, 18 mA, 0.2 s). […] 30 mg/kg carbamazepine was used as a positive control; mice were classified as protected by a compound If the duration of the seizure lasted only 3 second or less. Five mice were used for each treatment condition and the percentage of protected mice was used as readout (i.e. a compound could give 0%, 20%, 40%, 60%, 80% or 100% protection). […]
ED50 values (ED: effective dose) were calculated using GraphPad Prism, v4.02.
On the technique in general: In the maximal electroshock model the usual endpoint is tonic extension of the hind limbs.

For `CCC(OC(C)C)c1cc2c(=O)n(NS(C)(=O)=O)c(=O)[nH]c2cc1C(F)(F)F` (stereo not drawn) [Compound A-7, N-[6-(1-isopropoxy-propyl)-2,4-dioxo-7-trifluoromethyl-1,4-dihydro-2H-quinazolin-3-yl]-methanesulfonamide], the “In vivo orally active” value in experiment [1] was “Yes”.
The same measure, in the same setting: as for `CC(C)n1nccc1-c1cc2c(=O)n(NS(C)(=O)=O)c(=O)[nH]c2cc1C(C)(F)F` [Compound C-16, N-[7-(1,1-difluoro-ethyl)-6-(2-isopropyl-2H-pyrazol-3-yl)-2,4-dioxo-1,4-dihydro-2H-quinazolin-3-yl]-methanesulfonamide], the entry is “Yes”.
On the same count and under the same terms, with `CC(F)c1cc2[nH]c(=O)n(NS(C)(=O)=O)c(=O)c2cc1-c1ccnn1C(C)C` (stereo not drawn) [Compound C-17, N-[7-(1-fluoro-ethyl)-6-(2-isopropyl-2H-pyrazol-3-yl)-2,4-dioxo-1,4-dihydro-2H-quinazolin-3-yl]-methanesulfonamide] the entry was “Yes”; with `CC(OC1CCCC1)c1cc2c(=O)n(NS(C)(=O)=O)c(=O)[nH]c2cc1C(F)(F)F` (stereo not drawn) [Compound A-14, N-[6-(1-Cyclopentyloxy-ethyl)-2,4-dioxo-7-trifluoromethyl-1,4-dihydro-2H-quinazolin-3-yl]-methanesulfonamide], “yes”; with `Cn1nccc1-c1cc2c(=O)n(NS(C)(=O)=O)c(=O)[nH]c2cc1C(F)(F)F` [Compound C-18, N-[6-(2-Methyl-2H-pyrazol-3-yl)-2,4-dioxo-7-trifluoromethyl-1,4-dihydro-2H-quinazolin-3-yl]-methanesulfonamide], “Yes”.
Still for that read-out and setting: with `CS(=O)(=O)Nn1c(=O)[nH]c2cc(C(F)(F)F)c(-c3ccnn3O)cc2c1=O` [Compound C-5, N-[6-(2-Hydroxy-2H-pyrazol-3-yl)-2,4-dioxo-7-trifluoromethyl-1,4-dihydro-2H-quinazolin-3-yl]-methanesulfonamide] the entry was “Yes”; with `COCCn1nccc1-c1cc2c(=O)n(NS(C)(=O)=O)c(=O)[nH]c2cc1C(F)(F)F` [Compound C-4, N-{6-[2-(2-Methoxy-ethyl)-2H-pyrazol-3-yl]-2,4-dioxo-7-trifluoromethyl-1,4-dihydro-2H-quinazolin-3-yl}-methanesulfonamide], “Yes”.
In the case of `CC(C)n1nccc1-c1cc2c(=O)n(NS(C)(=O)=O)c(=O)[nH]c2cc1C(F)F` [Compound C-10, N-[7-Difluoromethyl-6-(2-isopropyl-2H-pyrazol-3-yl)-2,4-dioxo-1,4-dihydro-2H-quinazolin-3-yl]-methanesulfonamide], the “In vivo orally active” value in experiment [1] was “Yes”.
The same measure, in the same setting: with `CCCC(O)c1cc2c(=O)n(NS(C)(=O)=O)c(=O)[nH]c2cc1C(F)(F)F` (stereo not drawn) [Compound A-15, N-[6-(1-Hydroxy-butyl)-2,4-dioxo-7-trifluoromethyl-1,4-dihydro-2H-quinazolin-3-yl]-methanesulfonamide] the entry was “Yes”; with `CCC(O)c1cc2c(=O)n(NS(C)(=O)=O)c(=O)[nH]c2cc1C(F)(F)F` (stereo not drawn) [Compound A-3, N-[6-(1-Hydroxy-propyl)-2,4-dioxo-7-trifluoromethyl-1,4-dihydro-2H-quinazolin-3-yl]-methanesulfonamide], “Yes”.
For the molecule `COCCn1nccc1-c1cc2c(=O)n(NS(C)(=O)=O)c(=O)[nH]c2cc1C(C)C` [Compound C-1, N-{7-Isopropyl-6-[2-(2-methoxy-ethyl)-2H-pyrazol-3-yl]-2,4-dioxo-1,4-dihydro-2H-quinazolin-3-yl}-methanesulfonamide], the “MES-Test (1 h, po) protection” value in experiment [2] (@ 25 (mg/kg)) is recorded as 40% @ 25. Besides, in experiment [1], the “In vivo orally active” value is given as “yes”.
In the case of `CC(C)n1nccc1-c1cc2c(=O)n(NS(C)(=O)=O)c(=O)[nH]c2cc1CF` [Compound C-3, N-[7-Fluoromethyl-6-(2-isopropyl-2H-pyrazol-3-yl)-2,4-dioxo-1,4-dihydro-2H-quinazolin-3-yl]-methanesulfonamide], in experiment [1], the “In vivo orally active” value is reported as “Yes”.
`CC(C)c1cc2[nH]c(=O)n(NS(C)(=O)=O)c(=O)c2cc1-c1ccnn1C(C)C` [Compound C-8, N-[7-Isopropyl-6-(2-isopropyl-2H-pyrazol-3-yl)-2,4-dioxo-1,4-dihydro-2H-quinazolin-3-yl]-methanesulfonamide]: in experiment [2] (@ 50 (mg/kg)), the “MES-Test (1 h, po) protection” value is on record as 40% @ 50. For the same molecule, the “In vivo orally active” value in experiment [1] is “yes”.
With `CCOC(C)c1cc2c(=O)n(NS(C)(=O)=O)c(=O)[nH]c2cc1C(F)(F)F` (stereo not drawn) [Compound A-5, N-[6-(1-Ethoxy-ethyl)-2,4-dioxo-7-trifluoromethyl-1,4-dihydro-2H-quinazolin-3-yl]methanesulfonamide], the “In vivo orally active” value in experiment [1] was “yes”.
Same read-out and setting: with `COC(C)c1cc2c(=O)n(NS(C)(=O)=O)c(=O)[nH]c2cc1C(F)(F)F` (stereo not drawn) [Compound A-2, N-[6-(1-Methoxy-ethyl)-2,4-dioxo-7-trifluoromethyl-1,4-dihydro-2H-quinazolin-3-yl]-methanesulfonamide] the entry was “Yes”; with `CC(C)n1nccc1-c1cc2c(=O)n(NS(C)(=O)=O)c(=O)[nH]c2cc1C(F)(F)F` [Compound C-2, N-[6-(2-Isopropyl-2H-pyrazol-3-yl)-2,4-dioxo-7-trifluoromethyl-1,4-dihydro-2H-quinazolin-3-yl]-methanesulfonamide], “Yes”.
Same read-out and setting: with `COCCC(O)c1cc2c(=O)n(NS(C)(=O)=O)c(=O)[nH]c2cc1C(F)(F)F` (stereo not drawn) [Compound A-18, N-[6-(1-Hydroxy-3-methoxy-propyl)-2,4-dioxo-7-trifluoromethyl-1,4-dihydro-2H-quinazolin-3-yl]-methanesulfonamide] the entry was “Yes”.
Same read-out and setting: as for `CC(O)c1cc2c(=O)n(NS(C)(=O)=O)c(=O)[nH]c2cc1C(F)(F)F` (stereo not drawn) [Compound A-1, N-[6-(1-Hydroxy-ethyl)-2,4-dioxo-7-trifluoromethyl-1,4-dihydro-2H-quinazolin-3-yl]-methanesulfonamide], the entry is “Yes”.
`Cn1nccc1-c1cc2c(=O)n(NS(C)(=O)=O)c(=O)[nH]c2cc1C(C)(F)F` [Compound C-15, N-[7-(1,1-difluoro-ethyl)-6-(2-methyl-2H-pyrazol-3-yl)-2,4-dioxo-1,4-dihydro-2H-quinazolin-3-yl]-methanesulfonamide]: in experiment [2] (@ 20 (mg/kg)), the “MES-Test (1 h, po) protection” value was found to be 80% @ 20. In experiment [1], the “In vivo orally active” value is listed as “Yes”.
With `CS(=O)(=O)Nn1c(=O)[nH]c2cc(C(F)(F)F)c(C3CCCO3)cc2c1=O` [B-2 (S), N-[2,4-Dioxo-6-(tetrahydro-furan-2-yl)-7-trifluoromethyl-1,4-dihydro-2H-quinazolin-3-yl]-methanesulfonamide], the “MES-Test (1 h, po) ED50” value in experiment [2] was found to be 33.2 mg/kg.
Turning to `CC(C)OC(C)c1cc2c(=O)n(NS(C)(=O)=O)c(=O)[nH]c2cc1C(F)(F)F` (stereo not drawn) [Compound A-4, N-[6-(1-Isopropoxy-ethyl)-2,4-dioxo-7-trifluoromethyl-1,4-dihydro-2H-quinazolin-3-yl]-methanesulfonamide], the “In vivo orally active” value in experiment [1] is “Yes”.
On the same count and under the same terms, as for `CCCOC(CC)c1cc2c(=O)n(NS(C)(=O)=O)c(=O)[nH]c2cc1C(F)(F)F` (stereo not drawn) [Compound A-6, N-[2,4-Dioxo-6-(1-propoxy-propyl)-7-trifluoromethyl-1,4-dihydro-2H-quinazolin-3-yl]-methanesulfonamide], the entry is “Yes”; as for `CCc1cc2[nH]c(=O)n(NS(C)(=O)=O)c(=O)c2cc1-c1ccnn1C` [Compound C-11, N-[7-Ethyl-6-(2-methyl-2H-pyrazol-3-yl)-2,4-dioxo-1,4-dihydro-2H-quinazolin-3-yl]-methanesulfonamide], “Yes”.
Take `CS(=O)(=O)Nn1c(=O)[nH]c2cc(C(F)(F)F)c(C3CCCO3)cc2c1=O` [B-2 (R), N-[2,4-Dioxo-6-(tetrahydro-furan-2-yl)-7-trifluoromethyl-1,4-dihydro-2H-quinazolin-3-yl]-methanesulfonamide]: the “MES-Test (1 h, po) ED50” value in experiment [2] was 12.8 mg/kg.
For `CCOC(CC)c1cc2c(=O)n(NS(C)(=O)=O)c(=O)[nH]c2cc1C(F)(F)F` (stereo not drawn) [Compound A-13, N-[6-(1-Ethoxy-propyl)-2,4-dioxo-7-trifluoromethyl-1,4-dihydro-2H-quinazolin-3-yl]-methanesulfonamide], in experiment [1], the “In vivo orally active” value is on record as “Yes”.
With `Cn1nccc1-c1cc2c(=O)n(NS(C)(=O)=O)c(=O)[nH]c2cc1C(F)F` [Compound C-9, N-[7-Difluoromethyl-6-(2-methyl-2H-pyrazol-3-yl)-2,4-dioxo-1,4-dihydro-2H-quinazolin-3-yl]-methanesulfonamide], the “In vivo orally active” value in experiment [1] is on record as “Yes”.
The same measure, in the same setting: as for `CCc1cc2[nH]c(=O)n(NS(C)(=O)=O)c(=O)c2cc1-c1ccnn1CC` [Compound C-12, N-[7-Ethyl-6-(2-ethyl-2H-pyrazol-3-yl)-2,4-dioxo-1,4-dihydro-2H-quinazolin-3-yl]-methanesulfonamide], the entry is “Yes”.
Turning to `CS(=O)(=O)Nn1c(=O)[nH]c2cc(C(F)(F)F)c(C3CCCO3)cc2c1=O` (stereo not drawn) [Compound B-2, N-[2,4-Dioxo-6-(tetrahydro-furan-2-yl)-7-trifluoromethyl-1,4-dihydro-2H-quinazolin-3-yl]-methanesulfonamide], the “In vivo orally active” value in experiment [1] was “Yes”.
In the case of `CCc1cc2[nH]c(=O)n(NS(C)(=O)=O)c(=O)c2cc1-c1ccnn1C(C)C` [Compound C-6, N-[7-Ethyl-6-(2-isopropyl-2H-pyrazol-3-yl)-2,4-dioxo-1,4-dihydro-2H-quinazolin-3-yl]-methanesulfonamide], in experiment [2] (@ 50 (mg/kg)), the “MES-Test (1 h, po) protection” value is 20% @ 50. Besides, the “In vivo orally active” value in experiment [1] is listed as “yes”.
